Results from ChEMBL document CHEMBL5465560, “Selectivity Literature for EUbOPEN Chemogenomic Library” (2024).
Blank lines part the entries; values can stand above or below the molecule they belong to.

How the values were obtained:
[1] = target: T1, Serine/threonine-protein kinase LATS2 (Homo sapiens) (UniProt Q9NRM7); experiment: Selectivity interaction (ActivX KiNativ screen (kinase selectivity in THP-1 cell lysates)) EUB0000639a LATS2; format: subcellular; conditions: lysate
T1 sequence (whole entry): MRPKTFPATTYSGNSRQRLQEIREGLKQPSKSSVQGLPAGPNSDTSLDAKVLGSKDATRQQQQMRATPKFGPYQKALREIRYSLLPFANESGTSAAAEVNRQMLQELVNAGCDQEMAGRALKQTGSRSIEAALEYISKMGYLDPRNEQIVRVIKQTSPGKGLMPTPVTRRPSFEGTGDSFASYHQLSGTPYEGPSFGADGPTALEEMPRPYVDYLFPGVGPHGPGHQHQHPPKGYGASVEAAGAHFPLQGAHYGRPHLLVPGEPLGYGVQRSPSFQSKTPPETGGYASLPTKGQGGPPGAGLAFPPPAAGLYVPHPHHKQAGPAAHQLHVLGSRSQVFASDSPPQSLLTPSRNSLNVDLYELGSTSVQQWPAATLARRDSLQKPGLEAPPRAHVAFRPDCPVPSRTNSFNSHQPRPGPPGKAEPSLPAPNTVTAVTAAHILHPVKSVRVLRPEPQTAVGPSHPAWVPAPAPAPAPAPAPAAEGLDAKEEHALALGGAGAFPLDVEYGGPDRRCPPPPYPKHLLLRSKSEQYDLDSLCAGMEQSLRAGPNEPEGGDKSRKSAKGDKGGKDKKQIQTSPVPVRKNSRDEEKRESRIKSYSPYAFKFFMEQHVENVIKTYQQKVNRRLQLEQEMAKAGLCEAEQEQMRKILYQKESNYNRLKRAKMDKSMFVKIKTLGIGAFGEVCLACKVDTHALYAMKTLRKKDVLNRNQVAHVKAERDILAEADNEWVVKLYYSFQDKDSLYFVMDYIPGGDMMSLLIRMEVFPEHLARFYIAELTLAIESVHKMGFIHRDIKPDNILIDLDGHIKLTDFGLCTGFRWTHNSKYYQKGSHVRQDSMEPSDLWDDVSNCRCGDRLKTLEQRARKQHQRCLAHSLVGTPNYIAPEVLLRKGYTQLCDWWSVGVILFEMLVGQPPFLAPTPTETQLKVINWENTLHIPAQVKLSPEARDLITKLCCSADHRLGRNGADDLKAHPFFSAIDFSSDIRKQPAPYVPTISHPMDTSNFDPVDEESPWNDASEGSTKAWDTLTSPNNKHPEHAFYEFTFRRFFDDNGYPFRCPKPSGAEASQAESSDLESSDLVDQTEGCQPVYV

[2] = target: T2, STE20-related kinase adapter protein alpha (Homo sapiens) (UniProt Q7RTN6); experiment: Selectivity interaction (ActivX KiNativ screen (kinase selectivity in THP-1 cell lysates)) EUB0000639a STRADA; format: subcellular; conditions: lysate, at 0.2 µM
T2 sequence (whole entry): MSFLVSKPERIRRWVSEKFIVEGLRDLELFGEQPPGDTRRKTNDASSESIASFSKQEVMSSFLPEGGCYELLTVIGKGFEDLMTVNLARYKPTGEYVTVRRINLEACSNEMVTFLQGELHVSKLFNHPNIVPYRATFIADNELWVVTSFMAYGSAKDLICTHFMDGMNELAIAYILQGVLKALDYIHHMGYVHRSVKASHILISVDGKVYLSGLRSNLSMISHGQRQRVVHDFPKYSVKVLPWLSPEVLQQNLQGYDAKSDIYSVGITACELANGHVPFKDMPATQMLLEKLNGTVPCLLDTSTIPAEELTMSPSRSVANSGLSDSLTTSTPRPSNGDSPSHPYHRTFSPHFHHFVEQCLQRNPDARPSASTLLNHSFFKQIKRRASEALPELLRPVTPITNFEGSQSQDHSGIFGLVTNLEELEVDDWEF

[3] = target: Mitogen-activated protein kinase kinase kinase 4 (Homo sapiens) (UniProt Q9Y6R4); experiment: Selectivity interaction (KinomeScan (DiscoverX)) EUB0001079a MAP3K4; conditions: at 1 µM
[4] = target: T3, Ephrin type-B receptor 2 (Homo sapiens) (UniProt P29323); experiment: Selectivity interaction (KinomeScan (DiscoverX)) EUB0000092b EPHB2; conditions: at 10 µM
T3 sequence (whole entry): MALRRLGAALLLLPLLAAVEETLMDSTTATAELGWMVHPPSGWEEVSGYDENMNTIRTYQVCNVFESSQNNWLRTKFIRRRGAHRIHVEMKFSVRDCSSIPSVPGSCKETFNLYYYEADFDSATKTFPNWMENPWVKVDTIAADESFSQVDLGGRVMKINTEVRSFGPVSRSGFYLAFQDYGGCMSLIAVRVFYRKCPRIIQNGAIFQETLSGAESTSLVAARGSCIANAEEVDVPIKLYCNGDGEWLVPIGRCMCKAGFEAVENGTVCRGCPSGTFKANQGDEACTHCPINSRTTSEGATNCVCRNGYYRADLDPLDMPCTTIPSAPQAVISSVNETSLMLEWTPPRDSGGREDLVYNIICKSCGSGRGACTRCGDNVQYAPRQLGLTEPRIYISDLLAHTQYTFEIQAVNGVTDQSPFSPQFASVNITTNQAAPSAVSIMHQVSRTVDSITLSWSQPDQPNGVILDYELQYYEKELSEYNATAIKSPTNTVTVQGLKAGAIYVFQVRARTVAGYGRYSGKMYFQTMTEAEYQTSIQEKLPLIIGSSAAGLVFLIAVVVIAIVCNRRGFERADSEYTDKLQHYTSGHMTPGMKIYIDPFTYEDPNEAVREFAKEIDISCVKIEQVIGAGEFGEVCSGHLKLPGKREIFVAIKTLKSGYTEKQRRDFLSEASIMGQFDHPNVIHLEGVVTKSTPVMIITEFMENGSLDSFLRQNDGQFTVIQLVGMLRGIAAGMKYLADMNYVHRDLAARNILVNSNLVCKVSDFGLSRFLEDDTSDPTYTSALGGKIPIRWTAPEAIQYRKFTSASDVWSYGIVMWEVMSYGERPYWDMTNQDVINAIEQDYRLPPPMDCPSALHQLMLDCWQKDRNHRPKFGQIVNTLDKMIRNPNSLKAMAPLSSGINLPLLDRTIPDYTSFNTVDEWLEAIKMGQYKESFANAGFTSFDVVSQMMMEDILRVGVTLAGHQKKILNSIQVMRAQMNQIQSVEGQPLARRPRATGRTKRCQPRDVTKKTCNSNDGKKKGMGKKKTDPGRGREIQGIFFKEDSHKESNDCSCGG

Mitogen-activated protein kinase kinase kinase 4 (Homo sapiens), sequence (Q9Y6R4 whole entry): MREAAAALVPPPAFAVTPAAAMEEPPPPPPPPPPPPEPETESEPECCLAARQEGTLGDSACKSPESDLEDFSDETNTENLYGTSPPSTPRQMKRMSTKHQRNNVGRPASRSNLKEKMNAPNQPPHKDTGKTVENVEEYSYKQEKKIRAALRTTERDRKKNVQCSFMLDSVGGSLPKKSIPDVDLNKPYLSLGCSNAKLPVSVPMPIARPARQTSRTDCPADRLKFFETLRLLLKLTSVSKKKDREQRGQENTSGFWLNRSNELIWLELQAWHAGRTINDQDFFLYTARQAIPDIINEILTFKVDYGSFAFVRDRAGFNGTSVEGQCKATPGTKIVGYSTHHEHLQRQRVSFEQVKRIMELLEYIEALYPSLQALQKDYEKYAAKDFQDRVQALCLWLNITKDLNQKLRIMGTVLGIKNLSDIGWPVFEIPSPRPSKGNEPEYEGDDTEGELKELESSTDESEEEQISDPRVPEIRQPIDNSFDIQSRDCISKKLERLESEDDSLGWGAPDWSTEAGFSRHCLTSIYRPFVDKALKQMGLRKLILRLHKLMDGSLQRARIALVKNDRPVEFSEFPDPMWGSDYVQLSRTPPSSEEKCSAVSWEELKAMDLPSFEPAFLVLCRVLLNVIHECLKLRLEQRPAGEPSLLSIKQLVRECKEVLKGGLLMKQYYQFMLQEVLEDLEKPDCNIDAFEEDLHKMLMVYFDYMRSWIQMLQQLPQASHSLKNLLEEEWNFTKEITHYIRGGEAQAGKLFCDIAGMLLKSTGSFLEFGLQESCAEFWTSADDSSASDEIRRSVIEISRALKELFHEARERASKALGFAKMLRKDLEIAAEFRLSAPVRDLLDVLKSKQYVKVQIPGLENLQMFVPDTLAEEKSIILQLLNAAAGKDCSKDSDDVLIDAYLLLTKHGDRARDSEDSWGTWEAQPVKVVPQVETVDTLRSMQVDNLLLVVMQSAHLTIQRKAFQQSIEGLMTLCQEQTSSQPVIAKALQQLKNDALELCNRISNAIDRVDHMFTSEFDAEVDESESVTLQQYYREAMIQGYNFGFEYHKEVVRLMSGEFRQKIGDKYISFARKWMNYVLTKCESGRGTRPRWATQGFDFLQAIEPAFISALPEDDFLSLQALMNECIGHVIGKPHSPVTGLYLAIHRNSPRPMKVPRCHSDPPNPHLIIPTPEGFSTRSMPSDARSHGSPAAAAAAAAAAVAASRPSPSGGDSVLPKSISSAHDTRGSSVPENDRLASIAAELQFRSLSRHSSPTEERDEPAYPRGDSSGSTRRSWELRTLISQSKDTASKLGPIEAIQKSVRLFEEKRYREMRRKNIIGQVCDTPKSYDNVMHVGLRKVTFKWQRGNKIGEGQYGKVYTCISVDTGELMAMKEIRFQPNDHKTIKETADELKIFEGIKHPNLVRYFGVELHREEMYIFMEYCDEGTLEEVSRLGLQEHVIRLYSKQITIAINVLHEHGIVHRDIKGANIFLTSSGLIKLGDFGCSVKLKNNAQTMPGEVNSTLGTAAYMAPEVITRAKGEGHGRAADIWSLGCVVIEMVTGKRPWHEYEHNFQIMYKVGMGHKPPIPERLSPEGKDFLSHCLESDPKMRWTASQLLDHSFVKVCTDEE

% of inhibition ([1]; at 0.01 µM): -10.4%
% of inhibition ([1]; at 0.04 µM): -16%
% of inhibition ([1]; at 0.2 µM): 2.1%
% of inhibition ([1]; at 1 µM): 32.5%
% of inhibition ([1]; at 5 µM): 85%
% of inhibition [2]: -15.4%
SMILES: CC[C@@H]1[C@H](F)C(=O)N[C@@H]1COc1nccc2cc(C(N)=O)c(OC)cc12 [ZIMLOVISERTIB]

SMILES: Nc1cnc(N2CCc3cc(S(=O)(=O)Nc4c(F)cc(Cl)cc4F)cc(N4CCCC4=O)c32)nc1 [TP-020n]
% of control [3]: 85%

SMILES: CCC(=O)N1CCN(c2ccc(-n3c(=O)ccc4cnc5ccc(-c6cnc7ccccc7c6)cc5c43)cc2C(F)(F)F)CC1
% of control [4]: 100%
